Data from PubChem BioAssay (NCI).
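48-hour exposure; five concentrations; linearly interpolated endpoints. TGI is the concentration that stops growth completely.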

Legend:
Test in all cases: NCI-60 cell line screen, 48 h
[1] = system: M14 melanoma
[2] = system: COLO 205 colon
[3] = system: NCI-H226 lung
[4] = system: CAKI-1 renal
[5] = system: A498 renal
[6] = system: IGROV1 ovarian
[7] = system: OVCAR-8 ovarian
[8] = system: HS 578T breast
[9] = system: SW-620 colon
[10] = system: KM12 colon
[11] = system: OVCAR-5 ovarian
[12] = system: HT29 colon
[13] = system: NCI-H522 lung
[14] = system: UO-31 renal
[15] = system: BT-549 breast
[16] = system: SK-MEL-5 melanoma
[17] = system: SF-539 CNS
[18] = system: EKVX NSCLC
[19] = system: SN12C renal
[20] = system: HCC-2998 colon

| Compound | TGI [1] [µM] | TGI [2] [µM] | TGI [3] [µM] | TGI [4] [µM] | TGI [5] [µM] | TGI [6] [µM] | TGI [7] [µM] | TGI [8] [µM] | TGI [9] [µM] | TGI [10] [µM] | TGI [11] [µM] | TGI [12] [µM] | TGI [13] [µM] | TGI [14] [µM] | TGI [15] [µM] | TGI [16] [µM] | TGI [17] [µM] | TGI [18] [µM] | TGI [19] [µM] | TGI [20] [µM] |
| --- | --- | --- | --- | --- | --- | --- | --- | --- | --- | --- | --- | --- | --- | --- | --- | --- | --- | --- | --- | --- |
| CCN(CC)/[N+]([O-])=N/OCOC | > 100 | > 100 | > 100 | > 100 | > 100 | > 100 | > 100 | > 100 | > 100 | > 100 | > 100 | > 100 | > 100 | > 100 | > 100 | > 100 | > 100 | > 100 | > 100 | > 100 |
| CC(C)(C)C1=CC(=C2C=Cc3cc(O)ccc3O2)C=C(C(C)(C)C)C1=O | 3.29 | 3.25 | 3.43 | 3.11 | 2.85 | 3.04 | 3.79 | 8.22 | 3.48 | 3.73 | 3.94 | 3.59 | 2.99 | 2.5 | 3.55 | 2.94 | 3.4 | 3.5 | 3.02 | 2.54 |
| CC(=Nc1cccc(Cl)c1)c1ccncc1 | > 100 | > 100 | > 100 | > 100 | > 100 | > 100 | > 100 | > 100 | > 100 | > 100 | > 100 | > 100 | > 100 | > 100 | > 100 | > 100 | > 100 | > 100 | > 100 | > 100 |
| CC(NP(=O)(c1ccccc1)c1ccccc1)c1ccccc1 (stereo not given) | > 100 | > 100 | > 100 | > 100 | > 100 | > 100 | > 100 | > 100 | > 100 | > 100 | > 100 | > 100 | > 100 | > 100 | > 100 | > 100 | > 100 | > 100 | > 100 | > 100 |
| C/C(O)=C(\C=NC(=S)c1cccnc1)C(=O)Nc1ccccc1C | > 100 | > 100 | > 100 | > 100 | > 100 | > 100 | > 100 | > 100 | > 100 | > 100 | > 100 | > 100 | > 100 | > 100 | > 100 | > 100 | > 100 | > 100 | > 100 | > 100 |
| CCOC(=O)c1csc(C(CSCc2ccc(OC)cc2)N2C(=O)c3ccccc3C2=O)n1 (stereo not given) | > 100 | > 100 | > 100 | > 100 | > 100 | > 100 | > 100 | > 100 | > 100 | > 100 | > 100 | > 100 | 58.4 | > 100 | > 100 | > 100 | > 100 | > 100 | > 100 | > 100 |
| C[C@H](c1ccccc1)n1c(N)c(-c2nc3ccccc3s2)c2ccc([N+](=O)[O-])cc2c1=O | > 100 | 36.4 | > 63.1 | > 85.1 | 75.2 | 98.9 | > 100 | > 43.7 | > 100 | 61.2 | > 100 | > 52.7 | > 19.7 | 18.4 | > 95.9 | 19.8 | 54 | > 100 | > 100 | > 85.1 |
| CCO[C@@]12CCC3CC4CC[C@@](OCC)(O1)C4C32 (stereo not given in full) | > 100 | > 100 | > 100 | > 100 | > 100 | > 100 | > 100 | > 100 | > 100 | > 100 | > 100 | > 100 | > 100 | > 100 | > 100 | > 100 | > 100 | > 100 | > 100 | > 100 |
| O=C(OCc1ccccc1)c1ccc(NCc2cc(O)ccc2O)cc1 | 4.02 | 2.88 | 7.69 | 1.79 | 3.21 | 2.49 | 2.75 | 5.43 | 3.93 | 3.62 | 13.9 | 20.3 | 0.883 | 2.61 | 2.19 | 2.87 | 2.27 | 3.48 | 2.78 | 6.12 |
| CC1CC(=NC2CCCCC2)Nc2ccccc2N1Cc1ccccc1 (stereo not given) | 4.46 | 17 | 27.8 | 19.2 | 9.7 | 8.61 | 19.8 | 19.7 | 23 | 17 | 24 | 12.5 | 13.6 | 13.3 | 18.7 | 6.77 | 22.5 | 21 | 22.1 | 11.5 |
